Reference: patent US8852554B2, “Radiolabelled PDE10 ligands” (Janssen Pharmaceutica NV, priority 2009, dated 2014)
Where “and” joins values, the source holds several entries; their conditions need not be identical. Identical values can stand only once.

Assay: Biodistribution studies of the 18F tracers in rats
Assay type: in vivo, male Wistar rats
Conditions: rat
Procedure: Biodistribution studies were carried out in healthy male Wister rats (body weight 200-500 g) at 2 min, 30 min and 60 min post injection (p.i.) (n=3/time point). For |^18F|B-4 only the 2 min and 30 min time points were studied. […] Blood and major organs were collected in tared tubes and weighed. The radioactivity in blood, organs and other body parts was measured using an automated gamma counter. The distribution of radioactivity in different parts of the body at different time points p.i. of the tracer was calculated and expressed as percentage of injected dose (% ID), and as percentage of injected dose per gram tissue (% ID/g) for the selected organs. % ID is calculated as cpm in organ/total cpm recovered. For calculation of total radioactivity in blood, blood mass was assumed to be 7% of the body mass.

## COc1ccc(COc2ccc(-c3nn(CC[18F])cc3-c3ccncc3)cc2)nc1 [[^18F]B-4]
Biodistribution studies
  retention in the PDE10A-rich region striatum: retention
i.v.
  Clearance, 2 min/30 min ratio of % ID/g (normalized for body weight), Blood: 1.36
  Clearance, 2 min/30 min ratio of % ID/g (normalized for body weight), Cerebellum: 3.82
  Clearance, 2 min/30 min ratio of % ID/g (normalized for body weight), Cerebrum total: 2.90
  Clearance, 2 min/30 min ratio of % ID/g (normalized for body weight), Cortex: 4.24
  Clearance, 2 min/30 min ratio of % ID/g (normalized for body weight), Hippocampus: 3.08
  Clearance, 2 min/30 min ratio of % ID/g (normalized for body weight), Rest of cerebrum: 2.87
  Clearance, 2 min/30 min ratio of % ID/g (normalized for body weight), Striatum: 1.80
i.v., 2 min p.i.
  % ID, Blood: 4.55 ± 0.4 % ID
  % ID, Carcass: 36.93 ± 1.3 % ID
  % ID, Cerebellum: 0.07 % ID and 0.065 ± 0.011 % ID
  % ID, Cerebrum total: 0.32 % ID and 0.317 ± 0.014 % ID
  % ID, Cortex: 0.036 ± 0.007 % ID
  % ID, Heart: 0.62 ± 0.2 % ID
  % ID, Hippocampus: 0.006 ± 0.002 % ID
  % ID, Intestines: 12.02 ± 2.1 % ID
  % ID, Kidneys: 4.99 ± 0.2 % ID
  % ID, Liver: 35.98 ± 3.1 % ID
  % ID, Lungs: 1.12 ± 0.0 % ID
  % ID, Rest of cerebrum: 0.257 ± 0.014 % ID
  % ID, Spleen + Pancreas: 2.37 ± 0.2 % ID
  % ID, Stomach: 2.8 % ID and 2.80 ± 0.2 % ID
  % ID, Striatum: 0.018 ± 0.003 % ID
  % ID, Urine: 0.28 ± 0.1 % ID
  % ID/g normalized for body weight, Blood: 0.07 ± 0.01 % ID/g × body wt. in kg
  % ID/g normalized for body weight, Cerebellum: 0.109 % ID/g × body wt. in kg and 0.109 ± 0.01 % ID/g × body wt. in kg
  % ID/g normalized for body weight, Cerebrum + Cerebellum: 0.13 ± 0.01 % ID/g × body wt. in kg
  % ID/g normalized for body weight, Cerebrum total: 0.124 ± 0.01 % ID/g × body wt. in kg
  % ID/g normalized for body weight, Cortex: 0.168 % ID/g × body wt. in kg and 0.168 ± 0.00 % ID/g × body wt. in kg
  % ID/g normalized for body weight, Heart: 0.21 ± 0.06 % ID/g × body wt. in kg
  % ID/g normalized for body weight, Hippocampus: 0.091 % ID/g × body wt. in kg and 0.091 ± 0.01 % ID/g × body wt. in kg
  % ID/g normalized for body weight, Kidneys: 0.63 ± 0.17 % ID/g × body wt. in kg
  % ID/g normalized for body weight, Liver: 1.09 ± 0.08 % ID/g × body wt. in kg
  % ID/g normalized for body weight, Lungs: 0.22 ± 0.03 % ID/g × body wt. in kg
  % ID/g normalized for body weight, Rest of cerebrum: 0.117 ± 0.01 % ID/g × body wt. in kg
  % ID/g normalized for body weight, Spleen + Pancreas: 0.55 ± 0.03 % ID/g × body wt. in kg
  % ID/g normalized for body weight, Striatum: 0.226 % ID/g × body wt. in kg and 0.226 ± 0.01 % ID/g × body wt. in kg
  % ID/g, Blood: 0.14 ± 0.04 % ID/g
  % ID/g, Cerebellum: 0.231 ± 0.031 % ID/g
  % ID/g, Cerebrum + Cerebellum: 0.269 ± 0.066 % ID/g
  % ID/g, Cerebrum total: 0.263 ± 0.029 % ID/g
  % ID/g, Cortex: 0.355 ± 0.012 % ID/g
  % ID/g, Heart: 0.45 ± 0.13 % ID/g
  % ID/g, Hippocampus: 0.193 ± 0.031 % ID/g
  % ID/g, Liver: 2.32 ± 0.28 % ID/g
  % ID/g, Lungs: 0.46 ± 0.07 % ID/g
  % ID/g, Rest of cerebrum: 0.248 ± 0.030 % ID/g
  % ID/g, Spleen + Pancreas: 1.17 ± 0.03 % ID/g
  % ID/g, Striatum: 0.467 ± 0.002 % ID/g
  striatum/blood ratio (from % ID/g normalized for body weight): 3.47
  striatum/cortex ratio (from % ID/g normalized for body weight): 1.35
  striatum/hippocampus ratio (from % ID/g normalized for body weight): 2.49
